Source: patent US11840518B2, “Use of bromophenol-pyrazoline compounds for the treatment of feline coronavirus diseases” (Shandong Linghai Biotechnology Co., Ltd., priority 2021, dated 2023)

Legend:
[1] = tested on: FIPV wild strain in CRFK cells; experiment: Interference with FIPV replication in infected CRFK cells (qRT-PCR of vRNA in supernatant); assay type: cell-based, feline infectious peritonitis virus; details: 5 μM, CRFK cells infected with wild-type FIPV, 24 hours; FIG. 2
Experimental: To further confirm in vitro enzymatic inhibition results, the inventors evaluated whether the bromophenol-pyrazoline compounds could prevent FIPV replication in clinical wild-type FIPV-infected Crandell-Rees feline kidney (CRFK) cells.
The CRFK cells were cultured with DMEM containing 8% fetal bovine serum in a cell incubator with 5% CO2 at 37° C. When the cells grew to a density of about 80%, the cells were pretreated with 5 μM bromophenol-pyrazoline compounds to be tested for 1 hour, and then an FIPV wild strain (MOI=0.1) was inoculated into the CRFK cells. The CRFK cells inoculated with virus but without the compounds were set up as controls. After 24 hours, a cell supernatant was collected, and vRNA in the supernatant was subject to qRT-PCR analysis.

FIPV = experiment: Clinical trial in cats infected with the FIPV (feline infectious peritonitis); assay type: in vivo; details: for Moderate response: 4-week treatment
From the text: Serology or morphology cannot distinguish feline enteric coronavirus from the FIPV. According to the history, epidemiology, clinical symptoms, laboratory diagnosis, imaging examination and histopathological examination, the cats were diagnosed comprehensively after other diseases were ruled out.
Thirty cats infected with the FIPV were divided into a wet FIP group (n=17) and a dry FIP group (n=13) according to presence of significant pleural effusion, ascites, dyspnea and other symptoms (fibrous pleurisy and peritonitis). The wet FIP group (17 cats) was randomly divided into a control group (3 cats), a GS-441524 group (6 cats) and a compound 5 group (8 cats). The dry FIP group (13 cats) was randomly divided into a control group (2 cats), a GS-441524 group (5 cats) and a compound 5 group (6 cats).
For the wet and dry GS-441524 groups: 4.0 mg/kg was administered subcutaneously every 24 hours; and for the wet and dry compound 5 groups: 3 mg/kg was orally administered after dissolved in glucose solution once a day.
Rectal temperature was measured at least once a day, and body weight, respiration, appetite and activity were observed. Special people were arranged to feed the cats, and foodware was washed and disinfected every day. The cats with good appetite were fed with conventional cat food, and high protein pet food can was used as nutritional supplement. The cats with poor appetite were subject to nasal feeding and intravenous injection for nutritional supplement to ensure nutrition intake of the experimental cats. At the same time, defecation and urination were also observed in terms of volume and shape. The cats were examined for blood routine indexes, serum biochemical indicators and abdominal B ultrasound condition according to actual situation.
Cases with good appetite, body weight, respiration, body temperature and other body conditions at the completion of 4-week treatment, and examined for the blood routine indexes and serum biochemical indicators twice (more than 1 week apart) were defined as effective.

FIP = details: 4 weeks of continuous treatment at 4 mg/kg; cited from earlier work
[2] = dry FIP group, number of cats (GS-441524 group n=5, 4.0 mg/kg s.c.; compound 5 group n=6, 3 mg/kg oral)
[3] = dry FIP group, number of cats (GS-441524 group n=5; compound 5 group n=6)
[4] = wet FIP group, number of cats (GS-441524 group n=6, 4.0 mg/kg s.c.; compound 5 group n=8, 3 mg/kg oral)
[5] = wet FIP group, number of cats (GS-441524 group n=6; compound 5 group n=8)

Row | Structure (SMILES) | ability to interfere with the FIPV virus replication [1] | time within which ocular lesions in some cats began to resolve significantly (FIPV; Compound 5 treatment group) [h] | treatment time after which normal cat food was given (FIPV; Compound 5 treatment group) [days] | treatment time after which the body temperature returned to normal and the body weight increased (FIPV; Compound 5 treatment group) [days] | comparison with the positive drug GS-441524 group (FIPV; compound 5 3 mg/kg oral once a day vs GS-441524 4.0 mg/kg s.c. every 24 hours) | Clinical manifestations: time within which ocular lesions in some cats began to resolve significantly (FIPV; dry FIP group) | Clinical manifestations: treatment time after which normal/ordinary cat food was given (FIPV; dry FIP group) | Clinical manifestations: treatment time after which the intake returned to normal (FIPV; dry FIP group) | Death (FIPV; [2]) | Moderate response (FIPV; [3]) | Clinical manifestations: treatment time after which ascites and dyspnea basically recovered (FIPV; wet FIP group) | Clinical manifestations: treatment time after which the normal cat food was given (FIPV; wet FIP group) | Death (FIPV; [4]) | Moderate response (FIPV; [5]) | Clinical manifestations: treatment time after which the food intake recovered (FIPV; dry FIP group) | Clinical manifestations: treatment time after which the food intake recovered (FIPV; wet FIP group) | cats with the FIP in remission (FIP)
1 | COc1ccc(C2=NN(C(N)=S)C(c3cc(O)c(O)c(Br)c3Br)C2)cc1 (stereo not drawn) [Compound 5] | strongest ability to inhibit FIPV virus replication | ≤ 48 | 1 | 7 | faster onset of action, fewer deaths and higher response rate | 48 hours, and the | given after 1 day of days | normal after 3 days | 0 | 5 | after 10 days of | After 1 day of treat- | 1 | 6 | – | – | –
2 | N#C[C@@]1(c2ccc3c(N)ncnn23)O[C@H](CO)[C@@H](O)[C@H]1O [GS-441524, reference compound] | – | – | – | – | – | – | – | – | 0 | 3 | – | – | 1 | 3 | After 3 days of treat- | After 3 days of treat- | about 60%
